Experiments:
[1] = Study for confirmation of conversion to brexpiprazole in a buffer (stability of the evaluation compounds); assay type: physicochemical; settings: in buffer, average of duplicate; for Concentration of brexpiprazole formed: 60-minute reaction sample; for Concentration of evaluation compound decreased: decrease in 60-minute vs 0-minute reaction sample
How it was run: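 Compounds (final 1 μmol/L, from 100 μmol/L working solutions) incubated in buffer at 37° C. for 0 or 60 min, in duplicate, after 3 min pre-incubation of the reaction solution. Reactions stopped with acetonitrile/isopropanol (4:1) containing internal standards; compound and formed brexpiprazole quantified against 0.01–1 μmol/L calibration samples.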

[2] = in vitro; assay type: cell-based, human; settings: human, differentiated hl-60 cells, 300 μmol/L, about 24 hours, PMA-differentiated HL-60 cells, LDH; no-treatment 0%, cell lysis buffer 100%; read-out: cytotoxicity (%) Evaluation compound results
How it was run: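 HL-60 cells differentiated ~72 h with 10 nM PMA, then exposed ~24 h to compound at 300 μmol/L final in RPMI with 2% FBS. LDH release in supernatant gave cytotoxicity % scaled between untreated (0%) and lysis-buffer (100%) groups; triplicate.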

| SMILES | Concentration of brexpiprazole formed [1] [nM] | Concentration of evaluation compound decreased [1] [nM] | cytotoxicity at 24 h, 300 µM [2] [%] |
| --- | --- | --- | --- |
| O=C(O)CCCC(=O)OCOP(=O)([O-])OC[N+]1(CCCCOc2ccc3ccc(=O)[nH]c3c2)CCN(c2cccc3sccc23)CC1 [EX 70, (4-(benzo[b]thiophen-4-yl)-1-(4-((2-oxo-1.2-dihydroquinolin-7-yl)oxy)butyl)piperazin-1-ium-1-yl)methyl (((4-carboxybutanoyl)oxy)methyl) phosphate] | 0 | 0 | -7 |
| CCOC(=O)CCOC(=O)OCOP(=O)([O-])OC[N+]1(CCCCOc2ccc3ccc(=O)[nH]c3c2)CCN(c2cccc3sccc23)CC1 [EX 143, (4-(benzo[b]thiophen-4-yl)-1-(4-((2-oxo-1,2-dihydroquinolin-7-yl)oxy)butyl)piperazin-1-ium-1-yl)methyl ((((3-ethoxy-3-oxopropoxy)carbonyl)oxy)methyl) phosphate] | 0 | 50 | -5 |
| CCCOCCOP(=O)([O-])OC[N+]1(CCCCOc2ccc3ccc(=O)[nH]c3c2)CCN(c2cccc3sccc23)CC1 [EX 95, (4-(benzo[b]thiophen-4-yl)-1-(4-((2-oxo-1.2-dihydroquinolin-7-yl)oxy)butyl)piperazin-1-ium-1-yl)methyl (2-propoxyethyl) phosphate] | 0 | -10 | -4 |
| CCOC(=O)OCOP(=O)([O-])OC[N+]1(CCCCOc2ccc3ccc(=O)[nH]c3c2)CCN(c2cccc3sccc23)CC1 [EX 129, (4-(benzo[b]thiophen-4-yl)-1-(4-(((2-oxo-1,2-dihydroquinolin-7-yl)oxy)butyl)piperazin-1-ium-1-yl)methyl (((ethoxycarbonyl)oxy)methyl) phosphate] | 0 | 90 | -4 |
| CC(C)OC(=O)[C@H](C)NP(=O)([O-])OC[N+]1(CCCCOc2ccc3ccc(=O)[nH]c3c2)CCN(c2cccc3sccc23)CC1 [EX 159, (4-(benzo[b]thiophen-4-yl)-1-(4-((2-oxo-1,2-dihydroquinolin-7-yl)oxy)butyl)piperazin-1-ium-1-yl)methyl (S)-(1-isopropoxy-1-oxopropan-2-yl)phosphoramidate] | 0 | 60 | -1 |
| CSCCCOP(=O)([O-])OC[N+]1(CCCCOc2ccc3ccc(=O)[nH]c3c2)CCN(c2cccc3sccc23)CC1 [EX 66, (4-(benzo[b]thiophen-4-yl)-1-(4-((2-oxo-1,2-dihydroquinolin-7-yl)oxy)butyl)piperazin-1-ium-1-yl)methyl (3-(methylthio)propyl) phosphate] | 0 | 170 | -2 |
| CCOC(=O)[C@@H](C)OP(=O)([O-])OC[N+]1(CCCCOc2ccc3ccc(=O)[nH]c3c2)CCN(c2cccc3sccc23)CC1 [EX 103, (R)-(4-(benzo[b]thiophen-4-yl)-1-(4-((2-oxo-1,2-dihydroquinolin-7-yl)oxy)butyl)piperazin-1-ium-1-yl)methyl(1-ethoxy-1-oxopropan-2-yl) phosphate] | 0 | -10 | 3 |
| CC(=O)OCCCCCCOP(=O)([O-])OC[N+]1(CCCCOc2ccc3ccc(=O)[nH]c3c2)CCN(c2cccc3sccc23)CC1 [EX 101, 6-acetoxyhexyl ((4-(benzo[b]thiophen-4-yl)-1-(4-((2-oxo-1,2-dihydroquinolin-7-yl)oxy)butyl)piperazin-1-ium-1-yl)methyl) phosphate] | 0 | 80 | 16 |
| O=c1ccc2ccc(OCCCC[N+]3(COP(=O)([O-])OCCCCCCl)CCN(c4cccc5sccc45)CC3)cc2[nH]1 [EX 113, (4-(benzo[b]thiophen-4-yl)-1-(4-((2-oxo-1,2-dihydroquinolin-7-yl)oxy)butyl)piperazin-1-ium-1-yl)methyl (5-chloropentyl) phosphate] | 0 | 160 | 10 |
| C[C@@H](OP(=O)([O-])OC[N+]1(CCCCOc2ccc3ccc(=O)[nH]c3c2)CCN(c2cccc3sccc23)CC1)C(=O)OC(C)(C)C [EX 106, (R)-(4-(benzo[b]thiophen-4-yl)-1-(4-((2-oxo-1.2-dihydroquinolin-7-yl)oxy)butyl)piperazin-1-ium-1-yl)methyl (1-(tert-butoxy)-1-oxopropan-2-yl) phosphate] | 0 | 70 | 10 |
| O=c1ccc2ccc(OCCCC[N+]3(COP(=O)([O-])OCC4CC4)CCN(c4cccc5sccc45)CC3)cc2[nH]1 [EX 91, (4-(benzo[b]thiophen-4-yl)-1-(4-((2-oxo-1,2-dihydroquinolin-7-yl)oxy)butyl)piperazin-1-ium-1-yl)methyl (cyclopropylmethyl) phosphate] | 0 | 120 | 17 |
| CC(O)CCOP(=O)([O-])OC[N+]1(CCCCOc2ccc3ccc(=O)[nH]c3c2)CCN(c2cccc3sccc23)CC1 (stereo not drawn) [EX 40, (4-(benzo[b]thiophen-4-yl)-1-(4-((2-oxo-1,2-dihydroquinolin-7-yl)oxy)butyl)piperazin-1-ium-1-yl)methyl (3-hydroxybutyl) phosphate] | 0 | 60 | -5 |
| CCOCCOC(=O)OCOP(=O)([O-])OC[N+]1(CCCCOc2ccc3ccc(=O)[nH]c3c2)CCN(c2cccc3sccc23)CC1 [EX 132, (4-(benzo[b]thiophen-4-yl)-1-(4-((2-oxo-1,2-dihydroquinolin-7-yl)oxy)butyl)piperazin-1-ium-1-yl)methyl ((((2-ethoxyethoxy)carbonyl)oxy)methyl) phosphate] | 0 | 130 | -7 |
| C[C@H](NP(=O)([O-])OC[N+]1(CCCCOc2ccc3ccc(=O)[nH]c3c2)CCN(c2cccc3sccc23)CC1)C(N)=O [EX 158, (4-(benzo[b]thiophen-4-yl)-1-(4-((2-oxo-1,2-dihydroquinolin-7-yl)oxy)butyl)piperazin-1-ium-1-yl)methyl (S)-(1-amino-1-oxopropan-2-yl)phosphoramidate] | 0 | 70 | -3 |

Reference: patent publication US20260285888A1, “HETEROCYCLIC COMPOUND AND USE THEREOF” (OTSUKA PHARMACEUTICAL CO., LTD., priority 2023, published 2026)
